From patent US9591978B2, “Methods and compositions for pre-screening patients for treatment with noribogaine” (DemeRX, Inc., priority 2014, dated 2017) come the findings set out here.

This data set is described as follows: Pharmacokinetics of noribogaine in healthy volunteers (plasma, LCMSMS). As to conditions: for AUC0-216 / AUC0-∞ / Cmax / Tmax / t1/2: healthy male volunteers, fasted, n = 6, mean (SD).
Setting [1] is: 30 mg and 60 mg noribogaine dose groups.

`CC[C@H]1C[C@@H]2C[C@H]3c4[nH]c5ccc(OC6OC(C(=O)O)C(O)C(O)C6O)cc5c4CCN(C2)[C@@H]13` (some centres unmarked) [Noribogaine glucuronide, noribogaine glucuronide]: under setting [1], the “mean half-life in plasma” value fell in the range of 21 to 23 h, the “time by which detected in plasma of all subjects” value was not above 0.75 h and the “time of peak concentrations after noribogaine dosing” value was 3 to 4 h. Under “both dose groups (30 mg, 60 mg)”, the “proportion of Cmax and AUC relative to noribogaine” value is 3-4%. Moreover, where the note is “single oral 30 mg noribogaine”, the AUC0-216 is on record as 25.7 (9.1) ng · hr/ml, the “AUC0-∞” value was 25.8 (9.3) ng · hr/ml, the Cmax is reported as 1.8 (0.6) ng/ml and the Tmax was 3.0 (0.6) hr. For the setting “single oral 30 mg noribogaine”, the t1/2 was 20.6 (4.9) hr. For the same compound, under “single oral 60 mg noribogaine”, the AUC0-216 is listed as 65.0 (21.5) ng · hr/ml, the “AUC0-∞” value is 67.1 (21.9) ng · hr/ml, the Cmax is recorded as 4.1 (1.2) ng/ml and the Tmax is listed as 3.8 (1.2) hr. Further, the t1/2 (single oral 60 mg noribogaine) was 23.1 (3.0) hr.
